Assay results: US7612064B2, “Sulfopyrroles” (Takeda Pharmaceutical Company Limited, priority 2003, dated 2009)

Assays:
MRC5 = assay: MTS proliferation assay; assay type: cell-based; conditions: MRC5, 72 h
Description: (§1) The assay is performed in 96 well tissue culture plates. […] The test compounds are added in 20 μl complete medium containing max 5% DMSO. The final compound concentrations in the assays are 10 μM, 3 μM, 1 μM and 0.3 μM, respectively. The assay plates are incubated for 72 h at culture conditions. The MTS reagent is prepared according to the manufacturer's protocol (Promega G1111). 20 μl MTS reagent are added to each well, the assay plates are quickly spun and incubated for another 3 h at culture conditions. Subsequently, the plates are shortly shacked and absorption measured with a microplate-reader at 492 nm.

[1] = Hoechst 33342 nuclear staining; assay type: cell-based; conditions: for Hoechst 33342 nuclear staining score, HeLa: HeLa cells; for Hoechst 33342 nuclear staining score, Jurkat: Jurkat cells; for Hoechst 33342 nuclear staining score, H460: H460 cells; for Hoechst 33342 nuclear staining score, Jily: Jily cells; for Hoechst 33342 nuclear staining score, MRC5: MRC5 cells;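 on all read-outs here: apoptotic nuclei scored 0 none 1 weak under 50% of cells 2 strong over 50% of cells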
Description: This assay is performed in 96 well tissue culture plates. Appropriate number of cells (adherent cells: 3-5*10^3, suspension cells: 8-10*10^3) are being seeded out in 80 μl complete medium. Adherent cells are incubated for 24 h for proper spreading out before addition of test compounds while suspension cells are immediately treated with test compounds after seeding out. The test compounds are added in 20 μl complete medium containing max 5% DMSO. […] […] The assay plates are then further incubated for 30 min and subsequently analyzed with a standard inverted fluorescence microscope.
The readout allows the determination of the fraction of apoptotic nuclei as well as other morphological criteria specific for apoptosis as a function of the treatment. The following scores are used: 0 relating to no activity, 1 relating to weak activity comprising less than 50% of the cells and score 2 relating to strong activity comprising more than 50% of the cells.

HeLa = assay: MTS proliferation assay; assay type: cell-based, human; conditions: 72 h
Description: as §1

Jurkat = assay: MTS proliferation assay; assay type: cell-based, human; conditions: 72 h
Description: as §1

[2] = conc 0.1 (final concentrations in μM), 24 h or 48 h incubation
[3] = conc 0.3 (final concentrations in μM), 24 h or 48 h incubation
[4] = conc 1 (final concentrations in μM), 24 h or 48 h incubation
[5] = conc 3 (final concentrations in μM), 24 h or 48 h incubation

SMILES: Cc1ccc(S(=O)(=O)n2cc(CN3CCN(c4ncccn4)CC3)cc2-c2ccc3c(c2)OCO3)cc1 [Example 28]
- IC50 (MRC5): > 1000 nM
- Hoechst 33342 nuclear staining score, HeLa [1, 2]: 0
- Hoechst 33342 nuclear staining score, HeLa [1, 3]: 0
- Hoechst 33342 nuclear staining score, HeLa [1, 4]: 0
- Hoechst 33342 nuclear staining score, HeLa [1, 5]: 0
- Hoechst 33342 nuclear staining score, Jurkat [1, 2]: 0
- Hoechst 33342 nuclear staining score, Jurkat [1, 3]: 0
- Hoechst 33342 nuclear staining score, Jurkat [1, 4]: 0
- Hoechst 33342 nuclear staining score, Jurkat [1, 5]: 0
- IC50 (HeLa): > 1000 nM
- IC50 (Jurkat): > 1000 nM

SMILES: COc1cc(-c2cc(CNc3ccc(-n4cncn4)cc3)cn2S(=O)(=O)c2ccc(C)cc2)cc(OC)c1OC [Example 68]
- IC50 (MRC5): > 1000 nM
- Hoechst 33342 nuclear staining score, H460 ([1]; conc 0.1): 0
- Hoechst 33342 nuclear staining score, H460 ([1]; conc 0.3): 0
- Hoechst 33342 nuclear staining score, H460 ([1]; conc 1): 2 (strong activity comprising more than 50% of the cells)
- Hoechst 33342 nuclear staining score, H460 ([1]; conc 3): 2 (strong activity comprising more than 50% of the cells)
- Hoechst 33342 nuclear staining score, HeLa ([1]; conc 0.1): 0
- Hoechst 33342 nuclear staining score, HeLa ([1]; conc 0.3): 0
- Hoechst 33342 nuclear staining score, HeLa ([1]; conc 1): 0
- Hoechst 33342 nuclear staining score, HeLa ([1]; conc 3): 2 (strong activity comprising more than 50% of the cells)
- Hoechst 33342 nuclear staining score, Jily ([1]; conc 0.1): 0
- Hoechst 33342 nuclear staining score, Jily ([1]; conc 0.3): 0
- Hoechst 33342 nuclear staining score, Jily ([1]; conc 1): 2 (strong activity comprising more than 50% of the cells)
- Hoechst 33342 nuclear staining score, Jily ([1]; conc 3): 2 (strong activity comprising more than 50% of the cells)
- Hoechst 33342 nuclear staining score, Jurkat ([1]; conc 0.1): 0
- Hoechst 33342 nuclear staining score, Jurkat ([1]; conc 0.3): 0
- Hoechst 33342 nuclear staining score, Jurkat ([1]; conc 1): 2 (strong activity comprising more than 50% of the cells)
- Hoechst 33342 nuclear staining score, Jurkat ([1]; conc 3): 2 (strong activity comprising more than 50% of the cells)
- Hoechst 33342 nuclear staining score, MRC5 ([1]; conc 0.1): 0
- Hoechst 33342 nuclear staining score, MRC5 ([1]; conc 0.3): 0
- Hoechst 33342 nuclear staining score, MRC5 ([1]; conc 1): 0
- Hoechst 33342 nuclear staining score, MRC5 ([1]; conc 3): 2 (strong activity comprising more than 50% of the cells)
- Hoechst 33342 nuclear staining score, PBLs ([1]; conc 0.1): 0
- Hoechst 33342 nuclear staining score, PBLs ([1]; conc 0.3): 0
- Hoechst 33342 nuclear staining score, PBLs ([1]; conc 1): 0
- Hoechst 33342 nuclear staining score, PBLs ([1]; conc 3): 0
- IC50 (HeLa): < 1000 nM
- IC50 (Jurkat): < 1000 nM

SMILES: O=S(=O)(c1cccc(Cl)c1)n1cc(CNc2ccc(-n3ccnc3)cc2)cc1-c1ccc2c(c1)OCO2 [Example 74]
- IC50 (MRC5): > 1000 nM
- Hoechst 33342 nuclear staining score, H460 ([1]; conc 0.1): 0
- Hoechst 33342 nuclear staining score, H460 ([1]; conc 0.3): 0
- Hoechst 33342 nuclear staining score, H460 ([1]; conc 1): 0
- Hoechst 33342 nuclear staining score, H460 ([1]; conc 3): 0
- Hoechst 33342 nuclear staining score, HeLa ([1]; conc 0.1): 0
- Hoechst 33342 nuclear staining score, HeLa ([1]; conc 0.3): 0
- Hoechst 33342 nuclear staining score, HeLa ([1]; conc 1): 0
- Hoechst 33342 nuclear staining score, HeLa ([1]; conc 3): 0
- Hoechst 33342 nuclear staining score, Jily ([1]; conc 0.1): 0
- Hoechst 33342 nuclear staining score, Jily ([1]; conc 0.3): 0
- Hoechst 33342 nuclear staining score, Jily ([1]; conc 1): 0
- Hoechst 33342 nuclear staining score, Jily ([1]; conc 3): 0
- Hoechst 33342 nuclear staining score, Jurkat ([1]; conc 0.1): 0
- Hoechst 33342 nuclear staining score, Jurkat ([1]; conc 0.3): 0
- Hoechst 33342 nuclear staining score, Jurkat ([1]; conc 1): 0
- Hoechst 33342 nuclear staining score, Jurkat ([1]; conc 3): 0
- Hoechst 33342 nuclear staining score, MRC5 ([1]; conc 0.1): 0
- Hoechst 33342 nuclear staining score, MRC5 ([1]; conc 0.3): 0
- Hoechst 33342 nuclear staining score, MRC5 ([1]; conc 1): 0
- Hoechst 33342 nuclear staining score, MRC5 ([1]; conc 3): 0
- Hoechst 33342 nuclear staining score, PBLs ([1]; conc 0.1): 0
- Hoechst 33342 nuclear staining score, PBLs ([1]; conc 0.3): 0
- Hoechst 33342 nuclear staining score, PBLs ([1]; conc 1): 0
- Hoechst 33342 nuclear staining score, PBLs ([1]; conc 3): 0
- IC50 (HeLa): > 1000 nM
- IC50 (Jurkat): > 1000 nM

SMILES: Cc1ccc(S(=O)(=O)n2cc(CNc3ccc(N4CCOCC4)cc3)cc2-c2ccc3c(c2)OCO3)cc1.Cl [Example 14]
- IC50 (MRC5): > 1000 nM
- Hoechst 33342 nuclear staining score, HeLa [1, 2]: 0
- Hoechst 33342 nuclear staining score, HeLa [1, 3]: 0
- Hoechst 33342 nuclear staining score, HeLa [1, 4]: 0
- Hoechst 33342 nuclear staining score, HeLa [1, 5]: 2 (strong activity comprising more than 50% of the cells)
- Hoechst 33342 nuclear staining score, Jurkat [1, 2]: 0
- Hoechst 33342 nuclear staining score, Jurkat [1, 3]: 0
- Hoechst 33342 nuclear staining score, Jurkat [1, 4]: 0
- Hoechst 33342 nuclear staining score, Jurkat [1, 5]: 2 (strong activity comprising more than 50% of the cells)
- IC50 (HeLa): > 1000 nM
- IC50 (Jurkat): > 1000 nM

SMILES: Cc1ccc(S(=O)(=O)n2cc(-c3ccc(C#N)cc3)cc2-c2cccs2)cc1 [Example 54]
- IC50 (MRC5): > 1000 nM
- Hoechst 33342 nuclear staining score, H460 [1, 2]: 0
- Hoechst 33342 nuclear staining score, H460 [1, 3]: 0
- Hoechst 33342 nuclear staining score, H460 [1, 4]: 0
- Hoechst 33342 nuclear staining score, H460 [1, 5]: 0
- Hoechst 33342 nuclear staining score, HeLa [1, 2]: 0
- Hoechst 33342 nuclear staining score, HeLa [1, 3]: 0
- Hoechst 33342 nuclear staining score, HeLa [1, 4]: 0
- Hoechst 33342 nuclear staining score, HeLa [1, 5]: 0
- Hoechst 33342 nuclear staining score, Jily [1, 2]: 0
- Hoechst 33342 nuclear staining score, Jily [1, 3]: 0
- Hoechst 33342 nuclear staining score, Jily [1, 4]: 0
- Hoechst 33342 nuclear staining score, Jily [1, 5]: 0
- Hoechst 33342 nuclear staining score, Jurkat [1, 2]: 0
- Hoechst 33342 nuclear staining score, Jurkat [1, 3]: 0
- Hoechst 33342 nuclear staining score, Jurkat [1, 4]: 0
- Hoechst 33342 nuclear staining score, Jurkat [1, 5]: 0
- Hoechst 33342 nuclear staining score, MRC5 [1, 2]: 0
- Hoechst 33342 nuclear staining score, MRC5 [1, 3]: 0
- Hoechst 33342 nuclear staining score, MRC5 [1, 4]: 0
- Hoechst 33342 nuclear staining score, MRC5 [1, 5]: 0
- Hoechst 33342 nuclear staining score, PBLs [1, 2]: 0
- Hoechst 33342 nuclear staining score, PBLs [1, 3]: 0
- Hoechst 33342 nuclear staining score, PBLs [1, 4]: 0
- Hoechst 33342 nuclear staining score, PBLs [1, 5]: 0
- IC50 (HeLa): > 1000 nM
- IC50 (Jurkat): < 1000 nM

SMILES: NC(=O)c1ccc(-c2cc(-c3ccc4c(c3)OCO4)n(S(=O)(=O)c3cccc(Cl)c3)c2)cc1 [Example 5, p-(1-[m-chlorobenzenesulfonyl]-2-[3,4-methylenedioxyphenyl]-4pyrrolyl)-benzamide]
- IC50 (MRC5; Homo sapiens): > 1000 nM
- IC50 (HeLa; Homo sapiens): > 1000 nM
- IC50 (Jurkat; Homo sapiens): > 1000 nM

SMILES: Cc1ccc(S(=O)(=O)n2cc(CNC(CN3CCN(C)CC3)c3ccccc3)cc2-c2ccc3c(c2)OCO3)cc1 (stereo not drawn) [Example 24]
- IC50 (MRC5): > 1000 nM
- Hoechst 33342 nuclear staining score, HeLa [1, 2]: 0
- Hoechst 33342 nuclear staining score, HeLa [1, 3]: 0
- Hoechst 33342 nuclear staining score, HeLa [1, 4]: 0
- Hoechst 33342 nuclear staining score, HeLa [1, 5]: 0
- Hoechst 33342 nuclear staining score, Jurkat [1, 2]: 0
- Hoechst 33342 nuclear staining score, Jurkat [1, 3]: 0
- Hoechst 33342 nuclear staining score, Jurkat [1, 4]: 0
- Hoechst 33342 nuclear staining score, Jurkat [1, 5]: 0
- IC50 (Jurkat): > 1000 nM

SMILES: COc1cc(-c2cc(CNCCCN3CCN(C)CC3)cn2S(=O)(=O)c2ccc(C)cc2)cc(OC)c1OC [Example 3]
- IC50 (MRC5): > 1000 nM
- IC50 (HeLa): > 1000 nM
- IC50 (Jurkat): > 1000 nM

SMILES: Cc1ccc(S(=O)(=O)n2cc(-c3ccc(C(N)=O)cc3)cc2-c2ccc3c(c2)OCO3)cc1 [Example 47]
- Hoechst 33342 nuclear staining score, HeLa [1, 2]: 0
- Hoechst 33342 nuclear staining score, HeLa [1, 3]: 0
- Hoechst 33342 nuclear staining score, HeLa [1, 4]: 2 (strong activity comprising more than 50% of the cells)
- Hoechst 33342 nuclear staining score, HeLa [1, 5]: 2 (strong activity comprising more than 50% of the cells)
- Hoechst 33342 nuclear staining score, Jurkat [1, 2]: 0
- Hoechst 33342 nuclear staining score, Jurkat [1, 3]: 0
- Hoechst 33342 nuclear staining score, Jurkat [1, 4]: 0
- Hoechst 33342 nuclear staining score, Jurkat [1, 5]: 0
- IC50 (HeLa): > 1000 nM
- IC50 (Jurkat): > 1000 nM

SMILES: CN1CCN(CCCNCc2cc(-c3ccc4c(c3)OCO4)n(S(=O)(=O)c3cccc(Cl)c3)c2)CC1 [Example 4, 1-(m-Chlorobenzenesulfonyl)-2-(3,4-methylenedioxyphenyl)-4-(N-[3-{4-methylpiperazinyl}-propyl]-aminomethyl)-pyrrole]
- IC50 (MRC5): > 1000 nM
- IC50 (HeLa): > 1000 nM
- IC50 (Jurkat): > 1000 nM
